# Tested on: women of child-bearing ages
# Assay: Evaluation of improvement in premenstrual syndrome and menstrual pain by questionnaire before and after about 4 weeks of oral tablets
# Type: in vivo, human
# Source text: The American Psychiatric Association presents the following diagnosis standard for premenstrual syndrome.
# According to the standard, women who satisfy at least 5 of the following 11 items and at least one of the first 4 items were selected for test.
# (1) Quick change in emotion; sudden sadness, anger or rage
# (2) Persistent severe anger and uneasiness
# (3) Uneasiness and tension
# (4) Depression and hopelessness
# (5) Disinterest in daily lives
# (6) Fatigue or low energy
# (10) Difficulty in emotion control
# (11) Breast tenderness, headache, edema, muscle or joint pain and weight gain
# For the test, 350 mg tablets containing 100 wt % of the ginseng fruit extract of
# A table top tablet making machine (Erweka, Germany) was used.
# 40 women were selected from 48 women of child-bearing ages (in their 20s to 50s) according to the diagnosis standard. They were divided into 4 groups: i.e., unadministered group, red ginseng group, ginsenoside Re group, and ginseng fruit group. Each group was composed of 10 subjects.
# The red ginseng group was asked to take the red ginseng-containing tablets for 4 weeks, twice a day, two tablets once. That is to say, 1400 mg/day of red ginseng extract was administered to them.
# The ginsenoside Re group was asked to take tablets containing ginsenoside Re as an active ingredient twice a day, two tablets once. […] The content of ginsenoside Re was determined based on the analysis result shown in FIG. 1 for comparison of the effect of improving premenstrual syndrome and menstrual pain of ginseng fruit extract and only ginsenoside Re contained therein.
# The ginseng fruit group was asked to take the ginseng fruit extract-containing tablets for 4 weeks, twice a day, two tablets once. That is to say, 1400 mg/day of ginseng fruit extract was administered to them.
# The 40 women were asked to answer questionnaires first after menstruation and, after the administration of nothing, the red ginseng extract or the ginseng fruit extract, to answer questionnaires after the next menstruation was over (about 4 weeks later). The improvement in the symptoms of premenstrual syndrome was evaluated by monitoring the change in total scores based on the questionnaires. One point was given for each item.
# [1] = group total, n = 10 women, about 4 weeks, 1400 mg/day extract or 240 mg/day ginsenoside Re
# [2] = n = 10 per group, about 4 weeks, 1400 mg/day extract or 240 mg/day ginsenoside Re
structure (smiles),measurement,setting,value
"CC(C)=CCC[C@](C)(O[C@@H]1O[C@H](CO)[C@@H](O)[C@H](O)[C@H]1O)[C@H]1CC[C@]2(C)[C@@H]1[C@H](O)C[C@@H]1[C@@]3(C)CC[C@H](O)C(C)(C)[C@@H]3[C@@H](O[C@@H]3O[C@H](CO)[C@@H](O)[C@H](O)[C@H]3O[C@@H]3O[C@@H](C)[C@H](O)[C@@H](O)[C@H]3O)C[C@]12C [Ginsenoside Re, ginsenoside Re]","Total score, difference (before minus after administration)",[1],9
same,"Total score, difference in percent of the score before administration",[1],12%
same,"Total score (premenstrual syndrome questionnaire), after administration","group total, n = 10 women, after next menstruation (about 4 weeks), tablets twice a day, two tablets once: 1400 mg/day extract or 240 mg/day ginsenoside Re",66
same,"Total score (premenstrual syndrome questionnaire), before administration","group total, n = 10 women, one point per item (11 items), questionnaire after menstruation, before administration",75
same,"Number of women who felt the symptoms, difference (before minus after)",[2],2
same,"Number of women who felt the symptoms, difference in percent",[2],20%
same,"Number of women who felt the symptoms of premenstrual syndrome, after administration","n = 10 per group, after about 4 weeks, 1400 mg/day extract or 240 mg/day ginsenoside Re",8
same,"Number of women who felt the symptoms of premenstrual syndrome, before administration","n = 10 per group, before administration",10

# Source: patent US10342836B2, “Composition having a function for alleviating premenstrual syndrome and menstrual pain” (AMOREPACIFIC CORPORATION, priority 2013, dated 2019)
